Test results from PubChem BioAssay (NCI).
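96-well plates; 48 h exposure; 5 concentrations. Endpoints by linear interpolation between flanking doses. Not reached: highest tested concentration assigned. TGI: total growth inhibition.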

Key:
Experiment in all cases: NCI tumour cell line growth inhibition, 48 h
RPMI-8226 leukemia = tested on: RPMI-8226 leukemia
SK-OV-3 ovarian = tested on: SK-OV-3 ovarian
OVCAR-5 ovarian = tested on: OVCAR-5 ovarian
OVCAR-4 ovarian = tested on: OVCAR-4 ovarian
CAKI-1 renal = tested on: CAKI-1 renal
NCI-H460 lung = tested on: NCI-H460 lung
MCF7 breast = tested on: MCF7 breast
MDA-MB-231 breast = tested on: MDA-MB-231 breast
MDA-MB-435 = tested on: MDA-MB-435
T-47D breast = tested on: T-47D breast
SK-MEL-5 melanoma = tested on: SK-MEL-5 melanoma
SR leukemia = tested on: SR leukemia
LOX IMVI melanoma = tested on: LOX IMVI melanoma
MOLT-4 leukemia = tested on: MOLT-4 leukemia
HT29 colon = tested on: HT29 colon
PC-3 prostate = tested on: PC-3 prostate
SNB-75 CNS = tested on: SNB-75 CNS
MDA-N = tested on: MDA-N
DU-145 prostate = tested on: DU-145 prostate
ACHN renal = tested on: ACHN renal
IGROV1 ovarian = tested on: IGROV1 ovarian
HCT-116 colon = tested on: HCT-116 colon
NCI/ADR-RES ovarian = tested on: NCI/ADR-RES ovarian
OVCAR-8 ovarian = tested on: OVCAR-8 ovarian
UACC-62 melanoma = tested on: UACC-62 melanoma
A498 renal = tested on: A498 renal
UACC-257 melanoma = tested on: UACC-257 melanoma
KM12 colon = tested on: KM12 colon
SN12C renal = tested on: SN12C renal
K-562 leukemia = tested on: K-562 leukemia
HCT-15 colon = tested on: HCT-15 colon
M14 melanoma = tested on: M14 melanoma
U251 CNS = tested on: U251 CNS
BT-549 breast = tested on: BT-549 breast
SF-539 CNS = tested on: SF-539 CNS
COLO 205 colon = tested on: COLO 205 colon
HOP-62 NSCLC = tested on: HOP-62 NSCLC
HOP-92 NSCLC = tested on: HOP-92 NSCLC
UO-31 renal = tested on: UO-31 renal
SF-295 CNS = tested on: SF-295 CNS
TK-10 renal = tested on: TK-10 renal
SW-620 colon = tested on: SW-620 colon
SK-MEL-2 melanoma = tested on: SK-MEL-2 melanoma
HCC-2998 colon = tested on: HCC-2998 colon
HS 578T breast = tested on: HS 578T breast
A549 NSCLC = tested on: A549 NSCLC
EKVX NSCLC = tested on: EKVX NSCLC
786-0 renal = tested on: 786-0 renal
SK-MEL-28 melanoma = tested on: SK-MEL-28 melanoma
NCI-H23 lung = tested on: NCI-H23 lung
NCI-H522 lung = tested on: NCI-H522 lung
NCI-H226 lung = tested on: NCI-H226 lung
MALME-3M melanoma = tested on: MALME-3M melanoma
OVCAR-3 ovarian = tested on: OVCAR-3 ovarian
SF-268 CNS = tested on: SF-268 CNS
SNB-19 CNS = tested on: SNB-19 CNS
RXF 393 renal = tested on: RXF 393 renal
HL-60(TB) leukemia = tested on: HL-60(TB) leukemia
CCRF-CEM leukemia = tested on: CCRF-CEM leukemia

Measured: TGI

CCOC(=O)C1=C(C#N)S(=O)(=O)c2c(oc(C)c2C)N1
not listed: RXF 393 renal | HL-60(TB) leukemia | CCRF-CEM leukemia
> 100 µM: all other assays above

Cc1ccc(O)c(-c2cc(-c3cccc(Br)c3)c(C#N)c(N)n2)c1
47.8 µM: NCI-H522 lung
79.6 µM: MDA-N
63.1 µM: MALME-3M melanoma
92 µM: MCF7 breast
62.5 µM: RXF 393 renal
52 µM: UACC-257 melanoma
58.9 µM: KM12 colon
55.7 µM: NCI-H460 lung
72 µM: HL-60(TB) leukemia
35.3 µM: U251 CNS
87.3 µM: SK-OV-3 ovarian
57.3 µM: K-562 leukemia
75.5 µM: SF-539 CNS
87.1 µM: A549 NSCLC
50.9 µM: IGROV1 ovarian
54.7 µM: HT29 colon
44.1 µM: NCI-H226 lung
45.7 µM: SNB-19 CNS
51.6 µM: SK-MEL-2 melanoma
49.3 µM: ACHN renal
65.5 µM: EKVX NSCLC
28 µM: RPMI-8226 leukemia
37.4 µM: UACC-62 melanoma
46.8 µM: SR leukemia
54.2 µM: SF-295 CNS
89.8 µM: SW-620 colon
34.2 µM: COLO 205 colon
48.6 µM: HCC-2998 colon
39.8 µM: MDA-MB-435
30.6 µM: HCT-15 colon
52.7 µM: MDA-MB-231 breast
89.2 µM: M14 melanoma
31.1 µM: LOX IMVI melanoma
72.7 µM: UO-31 renal
75.6 µM: CAKI-1 renal
49.7 µM: SN12C renal
42.4 µM: HCT-116 colon
60 µM: SK-MEL-5 melanoma
62.8 µM: HS 578T breast
55.6 µM: PC-3 prostate
22.5 µM: OVCAR-4 ovarian
40.2 µM: TK-10 renal
77.1 µM: MOLT-4 leukemia
76.2 µM: T-47D breast
not listed: SNB-75 CNS | A498 renal | HOP-92 NSCLC | SK-MEL-28 melanoma | CCRF-CEM leukemia
> 100 µM: all other assays above

COc1ccc(C(c2ccc(OC)cc2)N2C(=O)CCC2C(=O)O)cc1 (stereo not drawn)
not listed: RXF 393 renal
> 100 µM: all other assays above
